According to patent publication US20240024273A1, “TOPICAL ADMINISTRATION OF 2-(DIETHYLAMINO)ETHYL 2-(4-ISOBUTYLPHENYL)PROPRIONATE FOR TREATMENT OF DISEASES” (TECHFIELDS PHARMA CO., LTD., priority 2020, published 2024):
Read-outs that look alike come from different tables or passages of the source.

Legend:
[1] = Phase 1 clinical study: plasma pharmacokinetics of prodrug and ibuprofen; type: in vivo, human; conditions: 70 mg; for AUC0-12 / Cmax: human, plasma; for AUC0-12: read-out: prodrug AUC0-12, geometric mean; for Cmax: read-out: prodrug Cmax, geometric mean
Method: Following a 5-day washout period, 2-(diethylamino)ethyl 2-(4-isobutylphenyl)propionate was administered b.i.d. during Days 6-11, and a morning dose only was administered to Day 12. Blood samples were collected for PK analysis over the 120-hour post-dose period following the Day 12 dose. Additionally, pre-dose blood samples were collected on Day 7 through Day 11 to evaluate steady-state status.
The same study procedures were followed as described in Part 1.
For single dose PK, serial blood samples were collected on Day 1 dose at the following time points: 0 (pre-dose), 0.25, 0.5, 0.75, 1, 1.5, 2, 2.5, 3, 4, 5, 6, 8, 10, 12, 18, 24, 48, 72, 96 and 120 hours post-dose.
For multiple-dose PK, serial blood samples were collected on Day 12 at the following time points: 0 (pre-dose), 0.25, 0.5, 0.75, 1, 1.5, 2, 2.5, 3, 4, 5, 6, 8, 10, 12, 18, 24, 48, 72, 96 and 120 hours post-dose.
The relative bioavailability of the single dose 70 mg topical application vs. 70 mg spray application was determined based on AUCtau, AUCinf and Cmax. The 90% confidence intervals (CIs) on the ratio of topical application vs. spray application were calculated.

[2] = test system: Osteoarthritis; conditions: n=107; placebo −33.6; cited from earlier work
[3] = test system: osteoarthritis of the knee; conditions: cited from earlier work
[4] = test system: Osteoarthritis; conditions: cited from earlier work
[5] = topical or ocular, Day 1, 70 mg topical
[6] = topical or ocular, Day 12, 70 mg topical

SMILES: CCN(CC)CCOC(=O)C(C)c1ccc(CC(C)C)cc1.Cl (stereo not drawn) [2-(diethylamino)ethyl 2-(4-isobutylphenyl)propionate hydrochloride]
- prodrug AUC0-12 ratio Topical/Spray ([1]; Day 1): 3.28
- prodrug Cmax ratio Topical/Spray ([1]; Day 1): 1.34
- prodrug AUC0-12 ratio Topical/Spray ([1]; Day 12): 0.91
- prodrug Cmax ratio Topical/Spray ([1]; Day 12): 0.93
- AUC0-12 [1, 5]: 0.913 ng·h/mL
- Cmax [1, 5]: 0.138 ng/mL
- AUC0-12 [1, 6]: 0.953 ng·h/mL
- Cmax [1, 6]: 0.143 ng/mL
- AUC0-12 ([1]; topical, Day 1, 70 mg spray): 0.279 ng·h/mL
- Cmax ([1]; topical, Day 1, 70 mg spray): 0.102 ng/mL
- AUC0-12 ([1]; topical, Day 12, 70 mg spray): 1.05 ng·h/mL
- Cmax ([1]; topical, Day 12, 70 mg spray): 0.155 ng/mL

SMILES: COc1ccc2cc([C@H](C)C(=O)O)ccc2c1 [Naproxen]
- Patient's Assessment of Arthritis Pain (VAS 0-100 mm), change [2]: −37.5 mm
- average daily paracetamol use ([3]; naproxen group): 670 mg
- difference from placebo, sign and symptoms of OA ([4]; 500 mg BID oral, Week 12): −5.8
- patients improved by 2 grades or more from baseline (physician's global assessment) ([4]; 500 mg BID): 33%
- Mean ± SEM WOMAC Osteoarthritis Index Composite Score Change from Baselines ([4]; 500 mg, BID, orally, 12 Weeks, scale 0 to 96): −11.9 ± 1.29

SMILES: COc1ccc2cc([C@H](C)C(=O)OCCCCO[N+](=O)[O-])ccc2c1 [naproxcinod]
- decrease of paracetamol use vs placebo group ([3]; active groups): 19.2% to 24.9
